According to US9278131B2, “Process for lowering the viscosity of highly concentrated protein solutions” (ADOCIA, priority 2012, dated 2016):

Tests used:
Format in all cases: physicochemical
bevacizumab = assay: viscosity of highly concentrated bevacizumab solution, cone/plate rheometer; conditions: Table I; bevacizumab 250 mg/mL, 150 mM additive, pH 6.2 ± 0.2, 21° C.
Source text: (§1) For this example, three solutions of monoclonal antibodies, i.e. a solution of bevacizumab (an IgG1 sold under the name Avastin® by Genentech/Hoffmann La Roche), a solution of infliximab (an IgG1/K sold under the name Remicade® by Schering-Plough), a solution of rituximab (an IgG1/K sold under the name mAbThera® by Hoffmann La Roche) and a solution of fusion protein, i.e. a solution of abatacept (IgG1-CTLA4 sold under the name Orencia® by Bristol-Meyers Squibb), were concentrated by ultrafiltration on Amicon® Ultra-15 filtration units with a cutoff threshold of 50 kDa.
The protein concentration of each concentrated solution was measured by UV spectroscopy (absorbance at 280 nm) after gravimetric dilution of the samples. […]
(§2) The effect of RVs 2 and 9 on the viscosity of these four highly concentrated therapeutic protein solutions was then evaluated comparatively with that of Arg and NaCl. To do this, the viscosity was measured using a cone/plate rheometer (TA Instrument, AR 2000 Ex, geometry of diameter 20 mm, cone of 0.5131°, solvent trap filled with water) at a temperature of 21° C. and in flow sweep mode with shear rates of between 5000 and 50 s^−1 (3 points per decade—steady-state sensing). […]

rituximab = assay: viscosity of highly concentrated rituximab solution, cone/plate rheometer; conditions: rituximab 196 mg/mL, 150 mM additive
Source text: as §1
(§3) The protein concentration of each concentrated solution was measured by UV spectroscopy (absorbance at 280 nm) after gravimetric dilution of the samples.
The solutions of rituximab (10 mg/mL) and of bevacizumab (25 mg/mL) were concentrated, respectively, to 320 mg/mL and 240 mg/mL.
The effect of RVs 2 and 9 on the viscosity of these four highly concentrated therapeutic protein solutions was then evaluated comparatively with that of Arg and NaCl.
The samples thus prepared were stored at room temperature and were analyzed using the rheometer within 24 hours of their preparation.
The pH of these formulations is the same as that of the commercial formulation of the corresponding therapeutic protein.
In this study, the highly concentrated infliximab and rituximab solutions used are the same as those which were prepared and used previously. […] The pH of these formulations is the same as that of the corresponding therapeutic protein formulation, i.e. 7.2±0.2 for infliximab, and 6.5±0.2 for rituximab.

abatacept = biological target: T1, abatacept (Homo sapiens, UniProt P16410); assay: viscosity of highly concentrated abatacept (fusion protein) solution, cone/plate rheometer; conditions: Table I; abatacept 230 mg/mL, 150 mM additive, pH 7.5 ± 0.5, 21° C.
T1 construct: a fragment of a protein of interest which is the extracellular domain of the receptor of protein CTLA-4; purchased Bristol-Meyers Squibb (Orencia)
T1 sequence (P16410 with tags, fused parts or gaps limits assumed): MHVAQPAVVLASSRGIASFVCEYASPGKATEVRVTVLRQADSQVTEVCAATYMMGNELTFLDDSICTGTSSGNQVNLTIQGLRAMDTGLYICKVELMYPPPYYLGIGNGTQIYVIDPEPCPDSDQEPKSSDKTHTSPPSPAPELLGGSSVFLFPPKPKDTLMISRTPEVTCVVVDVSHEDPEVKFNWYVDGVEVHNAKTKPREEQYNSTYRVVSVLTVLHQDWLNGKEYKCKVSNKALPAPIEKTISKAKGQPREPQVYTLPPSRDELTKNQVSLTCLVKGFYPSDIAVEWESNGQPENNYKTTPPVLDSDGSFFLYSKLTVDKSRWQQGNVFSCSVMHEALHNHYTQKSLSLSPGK
Source text: as §1, §3, §2

Cl.N=C(N)NCCC[C@H](N)C(=O)O [Arg, L-arginine hydrochloride salt]
% viscosity reduction relative to the control “protein alone” (bevacizumab): 26% | % viscosity reduction relative to the control “protein alone” (rituximab; Table I, pH 6.5 ± 0.2, 21° C.): 58% | % viscosity reduction relative to the control “protein alone” (rituximab; Table III, pH 6.5 ± 0.2): 58% | % viscosity reduction relative to the control “protein alone” (abatacept): 31%
